Assay results: patent US11124554B2, “Modified ligand-gated ion channels and methods of use” (Howard Hughes Medical Institute, priority 2016, dated 2021)
Read-outs that look alike come from different tables or passages of the source.

Legend:
α7^Q79G-5HT3 = molecular target: T1, α7^Q79G-5HT3 (Homo sapiens, UniProt P36544, M226I/Q79G/T225I); assay: Agonist potency (EC50), HEK cells expressing chimeric channel; assay type: cell-based, human α7 nAChR LBD, murine 5HT3 IPD; settings: read-out: Mean EC50, α7^Q79G-5HT3
T1 construct: expressed in transfected cells; host or cells: HEK cells

[1] = molecular target: T2, α7GlyR Q79G Y115F G175K K322L (Homo sapiens, UniProt P36544, G175K/Q79G/Y115F); assay: Agonist potency at chimeric channel; assay type: cell-based
T2 construct: expressed in transfected cells

α7^L131G-GABAc = molecular target: T3, α7^L131G-GABAc (Homo sapiens, UniProt P36544, L131G); assay: Agonist potency at chimeric channel (Table 9); assay type: cell-based
T3 construct: expressed in transfected cells

[2] = molecular target: T4, α7GlyR W77F Q79G Y115F G175K (Homo sapiens, UniProt P36544, G175K/Q79G/W77F/Y115F); assay: Agonist potency at chimeric channel; assay type: cell-based
T4 construct: expressed in transfected cells

α7-GlyR^A298G = molecular target: T5, α7-GlyR^A298G (Homo sapiens, UniProt P36544, A298G); assay: Agonist potency (EC50), HEK cells expressing chimeric channel; assay type: cell-based
T5 construct: expressed in transfected cells; host or cells: HEK cells

α7GABAc (GABAA-ρ) W298A = molecular target: T6, α7GABAc (GABAA-ρ) W298A (Homo sapiens, UniProt P36544, L141F/Q79G); assay: Agonist potency at chimeric channel (Table 7); assay type: cell-based
T6 construct: expressed in transfected cells

α7^W77F,G175K-GlyR = molecular target: T7, α7^W77F,G175K-GlyR (Homo sapiens, UniProt P36544, G175K/W77F); assay: Agonist potency at chimeric channel; assay type: cell-based
T7 construct: expressed in transfected cells

α7-GlyR = molecular target: T8, α7-GlyR (Homo sapiens, UniProt P36544); assay: Agonist potency (EC50), HEK cells expressing chimeric channel; assay type: cell-based
T8 construct: expressed in transfected cells; host or cells: HEK cells

α7^L131F-GlyR = molecular target: T9, α7^L131F-GlyR (Homo sapiens, UniProt P36544, L131F); assay: Agonist potency at chimeric channel (Table 9); assay type: cell-based
T9 construct: expressed in transfected cells

α7^Q79S,L131G,Q139L-GlyR = molecular target: T10, α7^Q79S,L131G,Q139L-GlyR (Homo sapiens, UniProt P36544, L131G/Q139L/Q79S); assay: cell-based; assay type: cell-based
T10 construct: expressed in transfected cells

[3] = molecular target: T11, α7^L131G,Q139L,Y217F-GlyR (Homo sapiens, UniProt P36544, L131G/Q139L/Y217F); assay: cell-based; assay type: cell-based
T11 construct: expressed in transfected cells

α7^Q79A-GlyR = molecular target: T12, α7^Q79A-GlyR (Homo sapiens, UniProt P36544, Q79A); assay: Agonist potency (EC50), HEK cells expressing chimeric channel; assay type: cell-based
T12 construct: expressed in transfected cells; host or cells: HEK cells

[4] = molecular target: T13, α7GlyR Q79S L131G Q139L Y217F (Homo sapiens, UniProt P36544, L131G/Q139L/Q79S/Y217F); assay: cell-based
T13 construct: expressed in transfected cells

α7^Q79G-GlyR^A298G = molecular target: T14, α7^Q79G-GlyR^A298G (Homo sapiens, UniProt P36544, A298G/Q79G); assay: Agonist potency (EC50), HEK cells expressing chimeric channel; assay type: cell-based
T14 construct: expressed in transfected cells; host or cells: HEK cells

α7^P216I-GlyR = molecular target: T15, α7^P216I-GlyR (Homo sapiens, UniProt P36544, P216I); assay: Agonist potency at chimeric channel; assay type: cell-based
T15 construct: expressed in transfected cells

[5] = molecular target: T16, α7GlyR Q79G G175K Y115F R27D E41R (Homo sapiens, UniProt P36544, E41R/G175K/Q79G/R27D/Y115F); assay: Agonist potency at chimeric channel; assay type: cell-based
T16 construct: expressed in transfected cells

α7^Q79G,Y115F-5HT3 = molecular target: T17, α7^Q79G,Y115F-5HT3 (Homo sapiens, UniProt P36544, M226I/Q79G/T225I/Y115F); assay: Agonist potency (EC50), HEK cells expressing chimeric channel; assay type: cell-based, human α7 nAChR LBD, murine 5HT3 IPD; settings: Table 4
T17 construct: expressed in transfected cells; host or cells: HEK cells

[6] = molecular target: T18, α7^R27D,E41R,Q79G,Y115F-GlyR^A298G (Homo sapiens, UniProt P36544, A298G/E41R/Q79G/R27D/Y115F); assay: as above; assay type: cell-based; settings: Table 4, read-out: Mean EC50, α7^R27D,E41R,Q79G,115F-GlyR^A298G
T18 construct: expressed in transfected cells; host or cells: HEK cells

α7^R27D,E41R-5HT3 = molecular target: T19, α7^R27D,E41R-5HT3 (Homo sapiens, UniProt P36544, E41R/M226I/R27D/T225I); assay: Whole cell recordings in HEK cells; assay type: cell-based, human α7 nAChR LBD, murine 5HT3 IPD; settings: V5 epitope tag
T19 construct: expressed in transfected cells; host or cells: HEK cells

α7^Q79G,Y115F-GlyR^A298G = molecular target: T20, α7^Q79G,Y115F-GlyR^A298G (Homo sapiens, UniProt P36544, A298G/Q79G/Y115F); assay: Agonist potency (EC50), HEK cells expressing chimeric channel; assay type: cell-based; settings: Table 4
T20 construct: expressed in transfected cells; host or cells: HEK cells

[7] = molecular target: T21, α7^L131G,Q139L,Y217F-5HT3 HC (Homo sapiens, UniProt P36544, L131G/M226I/Q139L/T225I/Y217F); assay: Agonist potency at chimeric channel (Table 9); assay type: cell-based; settings: α75HT3 L131G Q139L Y217F HC
T21 construct: expressed in transfected cells

α7^Q79G,Q139G-5HT3 = molecular target: T22, α7^Q79G,Q139G-5HT3 (Homo sapiens, UniProt P36544, M226I/Q139G/Q79G/T225I); assay: Agonist potency (EC50), HEK cells expressing chimeric channel; assay type: cell-based, human α7 nAChR LBD, murine 5HT3 IPD; settings: Table 4
T22 construct: expressed in transfected cells; host or cells: HEK cells

[8] = read-out: Agonist potency, a7GlyR

T8 sequence (P36544 with tags, fused parts or gaps): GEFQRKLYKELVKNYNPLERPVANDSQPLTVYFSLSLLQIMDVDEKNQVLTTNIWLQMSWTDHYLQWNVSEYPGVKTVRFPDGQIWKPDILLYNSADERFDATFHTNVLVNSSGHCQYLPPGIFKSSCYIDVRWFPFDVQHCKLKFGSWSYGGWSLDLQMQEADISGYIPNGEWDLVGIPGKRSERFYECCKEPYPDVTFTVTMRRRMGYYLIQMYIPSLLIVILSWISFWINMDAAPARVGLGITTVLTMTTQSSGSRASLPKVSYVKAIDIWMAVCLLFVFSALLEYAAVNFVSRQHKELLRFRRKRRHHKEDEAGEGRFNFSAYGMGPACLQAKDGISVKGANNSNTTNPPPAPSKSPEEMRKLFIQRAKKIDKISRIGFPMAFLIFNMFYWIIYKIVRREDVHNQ
T14 sequence (P36544 with tags, fused parts or gaps Q79G): as the sequence (P36544 with tags, fused parts or gaps) above, with Q57G, A276G counted along it
T5 sequence (P36544 with tags, fused parts or gaps, stated change not applied): as the sequence (P36544 with tags, fused parts or gaps) above, with A276G counted along it
T1 sequence (P36544 with tags, fused parts or gaps Q79G/T225I/M226I): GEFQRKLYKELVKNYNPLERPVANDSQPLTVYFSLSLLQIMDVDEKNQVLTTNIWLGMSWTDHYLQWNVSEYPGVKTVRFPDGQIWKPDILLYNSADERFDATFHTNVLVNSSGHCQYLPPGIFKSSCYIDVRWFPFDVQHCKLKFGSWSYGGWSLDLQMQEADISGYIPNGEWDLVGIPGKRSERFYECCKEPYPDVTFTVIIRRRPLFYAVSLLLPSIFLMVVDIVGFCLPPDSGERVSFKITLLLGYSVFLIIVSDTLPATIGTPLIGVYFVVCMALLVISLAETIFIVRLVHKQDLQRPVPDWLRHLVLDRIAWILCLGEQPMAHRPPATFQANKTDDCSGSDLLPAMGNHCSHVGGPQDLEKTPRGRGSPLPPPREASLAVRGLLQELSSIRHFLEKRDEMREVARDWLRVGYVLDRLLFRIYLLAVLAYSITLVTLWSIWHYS
T2 sequence (P36544 with tags, fused parts or gaps Q79G/Y115F/G175K): as the sequence (P36544 with tags, fused parts or gaps) above, with Q57G, Y93F, G153K, K300L counted along it
T12 sequence (P36544 with tags, fused parts or gaps Q79A): as the sequence (P36544 with tags, fused parts or gaps) above, with Q57A counted along it
T10 sequence (P36544 with tags, fused parts or gaps Q79S/L131G/Q139L): as the sequence (P36544 with tags, fused parts or gaps) above, with Q57S, L109G, Q117L counted along it
T16 sequence (P36544 with tags, fused parts or gaps R27D/E41R/Q79G/Y115F/G175K): as the sequence (P36544 with tags, fused parts or gaps) above, with R5D, E19R, Q57G, Y93F, G153K counted along it
T4 sequence (P36544 with tags, fused parts or gaps W77F/Q79G/Y115F/G175K): as the sequence (P36544 with tags, fused parts or gaps) above, with W55F, Q57G, Y93F, G153K counted along it
T9 sequence (P36544 with tags, fused parts or gaps L131F): as the sequence (P36544 with tags, fused parts or gaps) above, with L109F counted along it
T11 sequence (P36544 with tags, fused parts or gaps L131G/Q139L/Y217F): as the sequence (P36544 with tags, fused parts or gaps) above, with L109G, Q117L, Y195F counted along it
T15 sequence (P36544 with tags, fused parts or gaps P216I): as the sequence (P36544 with tags, fused parts or gaps) above, with P194I counted along it
T7 sequence (P36544 with tags, fused parts or gaps W77F/G175K): as the sequence (P36544 with tags, fused parts or gaps) above, with W55F, G153K counted along it
T13 sequence (P36544 with tags, fused parts or gaps Q79S/L131G/Q139L/Y217F): as the sequence (P36544 with tags, fused parts or gaps) above, with Q57S, L109G, Q117L, Y195F counted along it
T6 sequence (P36544 with tags, fused parts or gaps Q79G/L141F): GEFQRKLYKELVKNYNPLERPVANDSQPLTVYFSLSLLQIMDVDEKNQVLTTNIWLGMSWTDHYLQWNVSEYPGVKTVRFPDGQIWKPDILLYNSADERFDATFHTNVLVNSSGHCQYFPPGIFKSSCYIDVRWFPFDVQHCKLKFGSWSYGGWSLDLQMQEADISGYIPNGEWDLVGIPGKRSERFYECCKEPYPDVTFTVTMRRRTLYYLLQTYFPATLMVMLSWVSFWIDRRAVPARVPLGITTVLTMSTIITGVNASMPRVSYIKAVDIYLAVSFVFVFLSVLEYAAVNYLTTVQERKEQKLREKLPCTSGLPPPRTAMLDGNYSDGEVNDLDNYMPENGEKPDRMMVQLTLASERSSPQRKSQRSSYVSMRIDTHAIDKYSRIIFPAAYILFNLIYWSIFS
T17 sequence (P36544 with tags, fused parts or gaps Q79G/Y115F/T225I/M226I): as the sequence (P36544 with tags, fused parts or gaps Q79G/T225I/M226I) above, with Y93F counted along it
T20 sequence (P36544 with tags, fused parts or gaps Q79G/Y115F): as the sequence (P36544 with tags, fused parts or gaps) above, with Q57G, Y93F, A276G counted along it
T22 sequence (P36544 with tags, fused parts or gaps Q79G/Q139G/T225I/M226I): as the sequence (P36544 with tags, fused parts or gaps Q79G/T225I/M226I) above, with Q117G counted along it
T3 sequence (P36544 with tags, fused parts or gaps L131G): as the sequence (P36544 with tags, fused parts or gaps Q79G/L141F) above, with G57Q, L109G, F119L, A276W counted along it
T18 sequence (P36544 with tags, fused parts or gaps R27D/E41R/Q79G/Y115F): as the sequence (P36544 with tags, fused parts or gaps) above, with R5D, E19R, Q57G, Y93F, A276G counted along it
T19 sequence (P36544 with tags, fused parts or gaps R27D/E41R/T225I/M226I limits assumed): as the sequence (P36544 with tags, fused parts or gaps Q79G/T225I/M226I) above, with R5D, E19R, G57Q counted along it
T21 sequence (P36544 with tags, fused parts or gaps L131G/Q139L/Y217F/T225I/M226I limits assumed): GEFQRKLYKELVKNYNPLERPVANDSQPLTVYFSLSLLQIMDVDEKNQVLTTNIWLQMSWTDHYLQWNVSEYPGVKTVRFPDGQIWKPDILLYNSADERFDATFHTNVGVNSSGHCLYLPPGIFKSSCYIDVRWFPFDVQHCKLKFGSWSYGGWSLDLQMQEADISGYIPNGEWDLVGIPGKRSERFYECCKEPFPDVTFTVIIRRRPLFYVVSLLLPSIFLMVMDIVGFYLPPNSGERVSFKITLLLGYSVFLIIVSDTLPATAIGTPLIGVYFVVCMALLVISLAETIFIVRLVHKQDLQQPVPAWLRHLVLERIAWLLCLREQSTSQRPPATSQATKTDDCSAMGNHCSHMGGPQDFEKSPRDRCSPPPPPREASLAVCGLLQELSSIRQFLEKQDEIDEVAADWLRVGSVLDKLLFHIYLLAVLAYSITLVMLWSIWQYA

SMILES | EC50 [1] [nM] | EC50 [2] [nM] | EC50 (α7-GlyR^A298G) [nM] | EC50 (α7GABAc (GABAA-ρ) W298A) [nM] | EC50 (α7^W77F,G175K-GlyR) [nM] | EC50 (α7-GlyR) [nM] | EC50 (α7-GlyR; read-out: Agonist potency) [nM] | EC50 (α7-GlyR; [8]) [nM] | EC50 (α7^L131F-GlyR) [nM] | EC50 (α7^Q79S,L131G,Q139L-GlyR) [nM] | EC50 [3] [nM] | EC50 (α7^Q79A-GlyR) [nM] | EC50 [4] [nM] | EC50 (α7^Q79G-GlyR^A298G) [nM] | EC50 (α7^P216I-GlyR) [nM] | EC50 [5] [nM] | also measured
O=c1cccc2n1C[C@@H]1CNC[C@H]2C1 [Cytisine] | > 30000 | 4020 | 2100 | 13300 | 1500 | 6400 | 6400 | 6400 | 10500 | 10000 |  |  |  |  |  |  | EC50 (α7^Q79G-5HT3): 1700 nM; EC50 (α7^L131G-GABAc): > 500000 nM
Clc1ccc(C2CC3CCC2N3)cn1 (stereo not shown) [Epibatidine] | 270 |  |  | 420 | 40 |  |  |  |  | 12 | 21 | 38 | 22 | 32 | 30 | 59 | EC50 (α7^Q79G-5HT3; HEK cells, Table 1): 50 nM
O=C(NC1CN2CCC1CC2)c1ccc(Cl)cc1 (stereo not shown) [PNU-282987] |  | > 1000 | 35 |  |  | 130 | 130 | 130 | 200 |  | 160 | 22 | 50 | 7 | 40 | 50 | EC50 (α7^Q79G,Y115F-5HT3): 350 nM; EC50 [6]: 66 nM; EC50 (α7^Q79G-GlyR^A298G; read-out: α7^Q79G-GlyR^A298G EC50): 7 nM; EC50 (α7-GlyR; read-out: α7-GlyR EC50): 130 nM; whole cell response (α7^R27D,E41R-5HT3): potent responses; EC50 (α7^Q79G,Y115F-GlyR^A298G): 220 nM; EC50 [7]: 15 nM; EC50 (α7^Q79G,Q139G-5HT3): 160 nM
